Structures can show the parent of a compound that is named as a salt. Where two headings read alike, the source gives them in different places.
Assays:
[1] = target: electric eel acetylcholinesterase (Electrophorus electricus, UniProt O42275); experiment: biochemical
Source text: We prepared cell fractions from rat brain homogenates, and assayed membrane FAAH activity and cytosol MGL activity using anandamide [ethanolamine-3H] (American Radiolabeled Chemicals, ARC (St. Louis Mo.), 60 Ci/mmol) and 2-mono-oleoyl-glycerol-[glycerol-1,2,3^−3H] (ARC, St. Louis Mo., 20 Ci/mmol), respectively, as substrates (Dinh, T. Proc. Natl. Acad. Sci. U.S.A. (2002)). We conducted [^3H]anandamide transport assays in human astrocytoma cells (Piomelli, D. et al., Proc. Natl. Acad. Sci. U.S.A., 96, 5802-5807 (1999)); CB1 and CB2 binding assays in rat cerebellar membranes and CB2-overexpressing Chinese hamster ovary cells (Receptor Biology-Perkin Elmer, Wellesley, Mass.), respectively, using [^3H]WIN-55212-2 (NEN-Dupont, Boston, Mass., 40-60 Ci/mmol) as a ligand (Devane, W. A. et al. Science, 258, 1946-1949 (1992)); cholinesterase assays with a commercial kit (Sigma, St. Louis, Mo.), using purified enzymes (electric eel acetylcholinesterase type V-S and horse serum cholinesterase; both from Sigma, St. Louis, Mo.) and following manufacturer's instructions.

FAAH = target: T1, FAAH (Rattus norvegicus, UniProt P97612); experiment: biochemical; format: biochemical; parameters: from tissue; host or cells: rat brain (membrane fraction of homogenate; Wistar rats)
T1 sequence (P97612 1-579): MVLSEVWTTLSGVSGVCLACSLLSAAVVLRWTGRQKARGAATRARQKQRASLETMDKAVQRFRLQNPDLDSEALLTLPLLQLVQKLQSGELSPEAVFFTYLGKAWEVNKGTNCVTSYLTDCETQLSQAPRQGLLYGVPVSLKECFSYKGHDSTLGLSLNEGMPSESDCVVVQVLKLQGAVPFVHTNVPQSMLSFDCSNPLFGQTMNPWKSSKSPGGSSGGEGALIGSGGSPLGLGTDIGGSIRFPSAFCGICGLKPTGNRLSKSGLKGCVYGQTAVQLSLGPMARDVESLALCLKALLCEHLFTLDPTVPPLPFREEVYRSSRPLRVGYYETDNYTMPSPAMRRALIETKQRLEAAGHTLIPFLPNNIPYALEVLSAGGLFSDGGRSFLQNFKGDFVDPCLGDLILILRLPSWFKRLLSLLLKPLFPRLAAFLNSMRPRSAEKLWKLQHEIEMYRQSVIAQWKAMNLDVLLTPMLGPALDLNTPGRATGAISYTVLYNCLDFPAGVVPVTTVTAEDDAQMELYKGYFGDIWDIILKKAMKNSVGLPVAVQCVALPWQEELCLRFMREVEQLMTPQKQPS

[2] = Table 3, read-out: Amidohydrolase IC50
[3] = Table 4, FAAH IC50, read-out: Inhibition of Amidohydrolase IC50
[4] = rat brain membranes, read-out: IC50
[5] = Inhibition of Amidohydrolase IC50(μM)

Sequence of electric eel acetylcholinesterase (O42275 whole entry): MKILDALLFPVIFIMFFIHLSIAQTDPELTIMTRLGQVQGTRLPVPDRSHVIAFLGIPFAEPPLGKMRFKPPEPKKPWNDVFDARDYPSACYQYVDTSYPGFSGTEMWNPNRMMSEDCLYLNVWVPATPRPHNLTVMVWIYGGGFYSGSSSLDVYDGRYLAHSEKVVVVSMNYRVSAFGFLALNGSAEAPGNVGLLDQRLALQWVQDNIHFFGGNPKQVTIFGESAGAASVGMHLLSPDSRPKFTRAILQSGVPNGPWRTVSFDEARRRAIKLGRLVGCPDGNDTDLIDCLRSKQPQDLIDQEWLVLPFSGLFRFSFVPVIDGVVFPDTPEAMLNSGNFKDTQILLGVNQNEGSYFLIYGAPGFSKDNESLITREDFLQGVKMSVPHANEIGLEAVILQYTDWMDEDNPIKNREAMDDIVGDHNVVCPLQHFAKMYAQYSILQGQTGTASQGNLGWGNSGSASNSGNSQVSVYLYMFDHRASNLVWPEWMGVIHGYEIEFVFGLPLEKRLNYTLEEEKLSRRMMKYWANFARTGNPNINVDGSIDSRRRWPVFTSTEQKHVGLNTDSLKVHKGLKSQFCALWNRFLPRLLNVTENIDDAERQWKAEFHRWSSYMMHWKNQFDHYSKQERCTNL

Compound | IC50 (FAAH; [3]) | also measured
CC(C)(C)NC(=O)Oc1ccc(-c2ccccc2)cc1Cl [PL#10, 3-chloro-4-biphenylyl N-tert-butylcarbamate] | > 30 µM | IC50 [1]: > 30 µM; IC50 (FAAH; [2]): > 30 µM
O=C(NC1CCCCC1)Oc1ccc2ccccc2c1 [PL#11, 2-naphthyl N-cyclohexylcarbamate] | 0.33 µM | IC50 [1]: > 30 µM; IC50 (FAAH; [2]): 0.33 µM; IC50 (FAAH; [4]): 0.324 ± 0.031 µM
CNC(=O)Oc1ccc2c(c1)[C@@]1(C)CCN(C)[C@H]1N2C [PL#16, (−)-Physostigmine sulfate, reference compound] | > 30 µM | IC50 (FAAH; [2]): > 30 µM
CCCCOC(=O)Oc1ccc(C(=O)Oc2ccc(OC)cc2)cc1 [PL#17, O-butyl 4-(4-methoxyphenoxycarbonyl)-phenyl carbonate] | 9.1 µM | IC50 [1]: > 30 µM; IC50 (FAAH; [2]): 9.1 µM
CC1=CC(C)(C)N(C(=O)NC2CCCCC2)c2cc(C)c(C)cc21 [PL#19] | > 30 µM | –
O=C(Nc1cccc2ccccc12)NC1CCCCC1 [PL#20] | > 30 µM | –
O=C(Nc1ccc(Cl)cc1)NC1CCCCC1 [PL#21] | > 30 µM | –
O=C(Nc1ccc2ccccc2c1)N1CCCCC1 [PL#22] | > 30 µM | –
CCCCNC(=O)Nc1cccc2ccccc12 [PL#23] | > 30 µM | –
O=C(NC1CCCCC1)Oc1ccc(/C=C/c2ccccc2)cc1 [PL#24] | – | IC50 (FAAH; read-out: Inhibition of Amidohydrolase IC50): 3.3 µM
O=C(NC1CCCCC1)Oc1ccc(/C=C\c2ccccc2)cc1 [PL#25] | – | IC50 (FAAH; [5]): 0.24 µM
O=C(NC1CCCCC1)Oc1ccc2cccc(Br)c2c1 [PL#27] | 0.17 µM | –
CCc1ccc2cc(OC(=O)NC3CCCCC3)ccc2c1 [PL#28] | – | IC50 (FAAH; [5]): 3 µM
Cc1ccc(-c2cccc(OC(=O)NC3CCCCC3)c2)cc1 [PL#37] | 0.23 µM | –
O=C(NC1CCCCC1)Oc1cccc(-c2ccc(C(F)(F)F)cc2)c1 [PL#38] | – | IC50 (FAAH; [5]): 1.6 µM
Nc1ccc(-c2cccc(OC(=O)NC3CCCCC3)c2)cc1 [PL#39] | – | IC50 (FAAH; [5]): 0.51 µM
NC(=O)c1ccc(-c2cccc(OC(=O)NC3CCCCC3)c2)cc1 [PL#40] | > 10 µM | –
O=C(NC1CCCCC1)Oc1cccc(-c2ccc(F)cc2)c1 [PL#41] | 0.09 µM | –

Compound | IC50 (FAAH; [3]) | also measured
O=C(NC(=O)c1ccc(-c2cccc(OC(=O)NC3CCCCC3)c2)cc1)NC1CCCCC1 [PL#42] | – | IC50 (FAAH; [5]): ~30 µM
Cc1cccc(-c2cccc(OC(=O)NC3CCCCC3)c2)c1 [PL#43] | 0.1 µM | –
O=C(NC1CCCCC1)Oc1cccc(-c2cccc(C(F)(F)F)c2)c1 [PL#44] | – | IC50 (FAAH; [5]): 0.13 µM
Nc1cccc(-c2cccc(OC(=O)NC3CCCCC3)c2)c1 [PL#45] | – | IC50 (FAAH; [5]): 0.06 µM
O=C(NC1CCCCC1)Oc1cccc(-c2cccc(F)c2)c1 [PL#47] | 0.092 µM | –
Cc1ccc(OC(=O)NC2CCCCC2)cc1-c1ccccc1 [PL#48] | 0.2 µM | –
NC(=O)c1ccc(OC(=O)NC2CCCCC2)cc1-c1ccccc1 [PL#49] | 0.2 µM | –
O=C(NC(=O)c1ccc(OC(=O)NC2CCCCC2)cc1-c1ccccc1)NC1CCCCC1 [PL#50] | 3.1 µM | –
O=C(NC1CCCCC1)Sc1ccc2ccccc2c1 [PL#52] | – | IC50 (FAAH; [5]): 15 µM
O=C(Nc1ccccc1)OC1CCCCC1 [PL#56] | 3.1 µM | –
Cc1cccc(NC(=O)OC2CCCCC2)c1 [PL#57] | 0.8 µM | –
O=C(NC1CCCCC1)Oc1ccc([N+](=O)[O-])c(-c2ccccc2)c1 [PL#58] | > 30 µM | –
Nc1ccc(OC(=O)NC2CCCCC2)cc1-c1ccccc1 [PL#59] | 0.05 µM | –
O=C(NC1CCCCC1)Oc1cc(-c2ccccc2)ccc1[N+](=O)[O-] [PL#60] | > 30 µM | –
Nc1ccc(-c2ccccc2)cc1OC(=O)NC1CCCCC1 [PL#61] | > 30 µM | –
CCCc1cccc(-c2cccc(OC(=O)NC3CCCCC3)c2)c1 [PL#62] | – | IC50 (FAAH; [5]): 0.08 µM
O=C(NC1CCCCC1)Oc1cccc(-c2ccccc2)c1 [URB524, cyclohexylcarbamic acid biphenyl-3-yl ester] | 0.06 µM | IC50 (FAAH; Table 1, rat brain membranes, mean of at least three experiments, read-out: IC50): 0.063 µM; IC50 (FAAH; Table 5, rat brain membranes, [3H]anandamide, read-out: IC50 (nM) ± S.E.M.): 0.063 ± 0.009 µM; pIC50 obsd (FAAH; Table 6, meta-substituted derivatives): 7.20; IC50 (FAAH; [4]): 0.063 ± 0.009 µM
